Reference: ChEMBL document CHEMBL5584354, “Impact of Conjugation of the Reactive Oxygen Species (ROS)-Generating Catalytic Moiety with Membrane-Active Antimicrobial Peptoids: Promoting Multitarget Mechanism and Enhancing Selectivity” (J Med Chem, 2024)
Converted amounts (≈) assume the structure as drawn. Non-standard residues stand in square brackets, D forms with d. Residues, ends and D or L forms follow the SMILES beside them. *: point of attachment. X2 = C[C@@H](c1ccccc1)N(C[C@H](N)C(=O)NCC(=O)N[C@@H](Cc1c[nH]cn1)C(N)=O)*; Gly(N(CH2)2(3-indolyl)) = O=C(O)CNCCc1c[nH]c2ccccc12; Nspe = C[C@H](NCC(=O)O)c1ccccc1; Nphe = O=C(O)CNCc1ccccc1; Nlys = NCCCCNCC(=O)O

How the values were obtained:
Escherichia coli = assay: Antibacterial activity against Escherichia coli ATCC 25922 assessed as inhibition of bacterial growth incubated for 24 hrs by broth dilution method; assay type: functional
Staphylococcus aureus = assay: Antibacterial activity against Staphylococcus aureus ATCC 25923 assessed as inhibition of bacterial growth incubated for 24 hrs by broth dilution method; assay type: functional
[1] = Hemolytic activity in male Sprague-Dawley rat erythrocytes at 25 uM incubated for 1 hr by absorbance based method relative to control; assay type: toxicity, cell-based, Erythrocyte; conditions: read-out: Activity
[2] = Hemolytic activity in male Sprague-Dawley rat erythrocytes at 50 uM incubated for 1 hr by absorbance based method relative to control; assay type: toxicity, cell-based, Erythrocyte; conditions: read-out: Activity
[3] = Hemolytic activity in male Sprague-Dawley rat erythrocytes at 100 uM incubated for 1 hr by absorbance based method relative to control; assay type: toxicity, cell-based, Erythrocyte; conditions: read-out: Activity
Erythrocyte = assay: Hemolytic activity in male Sprague-Dawley rat erythrocytes assessed as concentration required for 10% hemolysis incubated for 1 hr by absorbance based method; assay type: toxicity, cell-based
[4] = Hemolytic activity in male Sprague-Dawley rat erythrocytes assessed as concentration required for 50% hemolysis incubated for 1 hr by absorbance based method; assay type: toxicity, cell-based, Erythrocyte
[5] = Selectivity index, ratio of HC10 for hemolytic activity in male Sprague-Dawley rat erythrocytes to MIC for antibacterial activity against Escherichia coli ATCC 25922; assay type: toxicity; conditions: read-out: Selectivity Index

| SMILES | MIC (Escherichia coli) | MIC (Staphylococcus aureus) | hemolysis at 1 h, 25 µM [1] | hemolysis at 1 h, 50 µM [2] | hemolysis at 1 h, 100 µM [3] | HC10 (Erythrocyte) | HC50 at 1 h [4] | selectivity ratio [5] |
| --- | --- | --- | --- | --- | --- | --- | --- | --- |
| C[C@@H](c1ccccc1)N(CC(=O)N(CCCCN)CC(=O)N(CC(=O)N(CC(=O)N(CCCCN)CC(=O)N(CC(=O)N(CC(=O)N(CCCCN)CC(=O)N(CCc1c[nH]c2ccccc12)CC(=O)N(CCc1c[nH]c2ccccc12)CC(N)=O)Cc1ccccc1)Cc1ccccc1)Cc1ccccc1)Cc1ccccc1)C(=O)CN(Cc1ccccc1)C(=O)CN(CCCCN)C(=O)[C@H](Cc1c[nH]cn1)NC(=O)CNC(=O)CN (H-GGH[Nlys][Nphe][Nspe][Nlys][Nphe][Nphe][Nlys][Nphe][Nphe][Nlys][Gly(N(CH2)2(3-indolyl))][Gly(N(CH2)2(3-indolyl))]-NH2) | 12.5 µM (≈ 26 µg/mL) | 3.1 µM (≈ 6.44 µg/mL) | 12.7% | 23.9% | 40.6% | 20.6 µM | > 100 µM | 1.6 |
| C[C@@H](c1ccccc1)N(CC(=O)N(CCCCN)CC(=O)N(CC(=O)N(CC(=O)N(CCCCN)CC(=O)N(CC(=O)N(CC(=O)N(CCCCN)CC(=O)N(CC(=O)N(CC(N)=O)Cc1ccccc1)Cc1ccccc1)Cc1ccccc1)Cc1ccccc1)Cc1ccccc1)Cc1ccccc1)C(=O)CN(Cc1ccccc1)C(=O)CNCCCCN (H-[Nlys][Nphe][Nspe][Nlys][Nphe][Nphe][Nlys][Nphe][Nphe][Nlys][Nphe][Nphe]-NH2) | 12.5 µM (≈ 21.5 µg/mL) | 6.3 µM (≈ 10.8 µg/mL) | 0.21% | 3.75% | 13.7% | 81.3 µM | > 100 µM | 6.5 |
| C[C@@H](c1ccccc1)N(CC(N)=O)C(=O)CN(CCCCN)C(=O)CN(Cc1ccccc1)C(=O)CN(Cc1ccccc1)C(=O)CN(CCCCN)C(=O)CN(C(=O)CN(C(=O)CN(CCCCN)C(=O)CN(Cc1ccccc1)C(=O)CN(Cc1ccccc1)C(=O)CN(CCCCN)C(=O)CNC(=O)[C@H](Cc1c[nH]cn1)NC(=O)CNC(=O)CN)[C@@H](C)c1ccccc1)[C@@H](C)c1ccccc1 (H-GGHG[Nlys][Nphe][Nphe][Nlys][Nspe][Nspe][Nlys][Nphe][Nphe][Nlys][Nspe]-NH2) | 25 µM (≈ 47.8 µg/mL) | 25 µM (≈ 47.8 µg/mL) | 0.91% | 6.84% | 20.8% | 58.4 µM | > 100 µM | 2.3 |
| C[C@@H](c1ccccc1)N(CC(N)=O)C(=O)CN(CCCCN)C(=O)CN(C(=O)CN(C(=O)CN(CCCCN)C(=O)CN(C(=O)CN(C(=O)CN(CCCCN)C(=O)CN(C(=O)CN(C(=O)CN(CCCCN)C(=O)[C@H](Cc1c[nH]cn1)NC(=O)CNC(=O)CN)[C@@H](C)c1ccccc1)[C@@H](C)c1ccccc1)[C@@H](C)c1ccccc1)[C@@H](C)c1ccccc1)[C@@H](C)c1ccccc1)[C@@H](C)c1ccccc1 (H-GGH[Nlys][Nspe][Nspe][Nlys][Nspe][Nspe][Nlys][Nspe][Nspe][Nlys][Nspe]-NH2) | 12.5 µM (≈ 23.9 µg/mL) | 6.3 µM (≈ 12 µg/mL) | 7.95% | 32% | 61.6% | 22.9 µM | 81.6 µM | 1.8 |
| C[C@@H](c1ccccc1)N(CC(=O)N(CCCCN)CC(=O)N(CC(=O)N(CC(=O)N(CCCCN)CC(=O)N(CC(=O)N(CC(N)=O)Cc1ccccc1)Cc1ccccc1)[C@@H](C)c1ccccc1)[C@@H](C)c1ccccc1)C(=O)CN(C(=O)CN(CCCCN)C(=O)CN(Cc1ccccc1)C(=O)CN(Cc1ccccc1)C(=O)CN(CCCCN)C(=O)[C@H](Cc1c[nH]cn1)NC(=O)CNC(=O)CN)[C@@H](C)c1ccccc1 (H-GGH[Nlys][Nphe][Nphe][Nlys][Nspe][Nspe][Nlys][Nspe][Nspe][Nlys][Nphe][Nphe]-NH2) | 12.5 µM (≈ 25.2 µg/mL) | 25 µM (≈ 50.4 µg/mL) | 3.01% | 8.68% | 18.4% | 56.5 µM | > 100 µM | 4.5 |
| C[C@@H](c1ccccc1)N(CC(=O)N(CCCCN)CC(=O)N(CC(=O)N(CC(=O)N(CCCCN)CC(=O)N(CC(=O)N(C[C@H](N)C(=O)NCC(=O)N[C@@H](Cc1c[nH]cn1)C(N)=O)[C@@H](C)c1ccccc1)[C@@H](C)c1ccccc1)[C@@H](C)c1ccccc1)[C@@H](C)c1ccccc1)C(=O)CN(C(=O)CN(CCCCN)C(=O)CN(CCc1c[nH]c2ccccc12)C(=O)CN(CCc1c[nH]c2ccccc12)C(=O)CNCCCCN)[C@@H](C)c1ccccc1 (H-[Nlys][Gly(N(CH2)2(3-indolyl))][Gly(N(CH2)2(3-indolyl))][Nlys][Nspe][Nspe][Nlys][Nspe][Nspe][Nlys][Nspe]-X2) | 25 µM (≈ 53 µg/mL) | 3.1 µM (≈ 6.57 µg/mL) | 8.35% | 14% | 23.8% | 31.9 µM | > 100 µM | 1.2 |
| C[C@@H](c1ccccc1)N(CC(N)=O)C(=O)CN(C(=O)CN(CCCCN)C(=O)CN(Cc1ccccc1)C(=O)CN(Cc1ccccc1)C(=O)CN(CCCCN)C(=O)CN(Cc1ccccc1)C(=O)CN(Cc1ccccc1)C(=O)CN(CCCCN)C(=O)CN(CCc1c[nH]c2ccccc12)C(=O)CN(CCc1c[nH]c2ccccc12)C(=O)CN(CCCCN)C(=O)[C@H](Cc1c[nH]cn1)NC(=O)CNC(=O)CN)[C@@H](C)c1ccccc1 (H-GGH[Nlys][Gly(N(CH2)2(3-indolyl))][Gly(N(CH2)2(3-indolyl))][Nlys][Nphe][Nphe][Nlys][Nphe][Nphe][Nlys][Nspe][Nspe]-NH2) | 12.5 µM (≈ 26.2 µg/mL) | 1.6 µM (≈ 3.35 µg/mL) | 13.8% | 25.5% | 40.2% | 16.3 µM | > 100 µM | 1.3 |
| C[C@@H](c1ccccc1)N(CC(N)=O)C(=O)CN(CCCCN)C(=O)CN(C(=O)CN(C(=O)CN(CCCCN)C(=O)CN(C(=O)CN(C(=O)CN(CCCCN)C(=O)CN(C(=O)CN(C(=O)CN(CCCCN)C(=O)CNC(=O)[C@H](Cc1c[nH]cn1)NC(=O)CNC(=O)CN)[C@@H](C)c1ccccc1)[C@@H](C)c1ccccc1)[C@@H](C)c1ccccc1)[C@@H](C)c1ccccc1)[C@@H](C)c1ccccc1)[C@@H](C)c1ccccc1 (H-GGHG[Nlys][Nspe][Nspe][Nlys][Nspe][Nspe][Nlys][Nspe][Nspe][Nlys][Nspe]-NH2) | 12.5 µM (≈ 24.6 µg/mL) | 6.3 µM (≈ 12.4 µg/mL) | 6.5% | 22.4% | 49.8% | 27.7 µM | 100 µM | 2.2 |
| C[C@@H](c1ccccc1)N(CC(N)=O)C(=O)CN(CCCCN)C(=O)CN(C(=O)CN(C(=O)CN(CCCCN)C(=O)CN(C(=O)CN(C(=O)CN(CCCCN)C(=O)CN(C(=O)CN(C(=O)CNCCCCN)[C@@H](C)c1ccccc1)[C@@H](C)c1ccccc1)[C@@H](C)c1ccccc1)[C@@H](C)c1ccccc1)[C@@H](C)c1ccccc1)[C@@H](C)c1ccccc1 (H-[Nlys][Nspe][Nspe][Nlys][Nspe][Nspe][Nlys][Nspe][Nspe][Nlys][Nspe]-NH2) | 6.3 µM (≈ 10.4 µg/mL) | 1.6 µM (≈ 2.65 µg/mL) | 40.3% | 97.6% | 96.5% | 9.64 µM | 28.3 µM | 1.5 |
| C[C@@H](c1ccccc1)N(CC(N)=O)C(=O)CN(CCCCN)C(=O)CN(CCCCN)C(=O)CN(C(=O)CN(C(=O)CN(CCCCN)C(=O)CN(C(=O)CN(C(=O)CN(CCCCN)C(=O)CN(CCc1c[nH]c2ccccc12)C(=O)CN(CCc1c[nH]c2ccccc12)C(=O)CN(CCCCN)C(=O)[C@H](Cc1c[nH]cn1)NC(=O)CNC(=O)CN)[C@@H](C)c1ccccc1)[C@@H](C)c1ccccc1)[C@@H](C)c1ccccc1)[C@@H](C)c1ccccc1 (H-GGH[Nlys][Gly(N(CH2)2(3-indolyl))][Gly(N(CH2)2(3-indolyl))][Nlys][Nspe][Nspe][Nlys][Nspe][Nspe][Nlys][Nlys][Nspe]-NH2) | 25 µM (≈ 52.9 µg/mL) | 6.3 µM (≈ 13.3 µg/mL) | 4.98% | 5.9% | 6.4% | > 100 µM | > 100 µM | > 4 |
